According to article PMC11362529, “Exploring the neuroprotective potential of Nrf2-pathway activators against annonacin toxicity” (Scientific Reports, 2024):

Assays:
Type in all cases: cell-based, human
LUHMES cells [1] = assay: Mitochondrial membrane potential (JC-1 probe); conditions: CCCP 50 µM, positive control
Description: In PLO/FN-coated 24-well microplates, cells were simultaneously incubated with 20 nM of annonacin and the selected concentrations of Nrf2-pathway activators, in glucose-reduced medium, over the course of 24 h. After that, the medium was removed and cells were washed once with warm HBSS, followed by incubation with 5 µM JC-1 solution in HBSS, for 20 min at 37 °C. For the positive control, the mitochondrial oxidative phosphorylation uncoupler, CCCP, was used at a concentration of 50 µM. After the incubation period, cells were washed with HBSS, and fresh HBSS was added to keep the cells viable during live-image acquisition. Image acquisition was done on a fluorescence microscope Leica-DFC9000GTC (Leica, Frankfurt, Germany). Environmental conditions were kept steady at 37 °C with a 5% CO2 atmosphere during the entire acquisition time. Ten to fifteen images from different fields of view, dispersed across triplicates, were acquired with 200 × magnification (20 × objective, 10 × intermediate magnification), using the same image acquisition parameters for all conditions. The fluorescence of JC-1 monomers was captured on the green channel (λ Ex/Em = 475/519 nm) and the fluorescence of JC-1 aggregates was capture on the red channel (λ Ex/Em = 555/594 nm). Quantification of FI (fluorescence intensities) of JC-1 monomeric and aggregated forms was done using the ImageJ software (http://rsb.info.nih.gov/ij/, ImageJ bundled with 64-bit Java 8). Briefly, TIFF exported images were submitted to background subtraction using the rolling ball method with a radius of 50 pixels. Channel-specific thresholds were applied to all images to define the ROI (region of interest) and FI were measured as integrated density. Data were reported as the ratio between JC-1 aggregates and monomers, obtained by dividing the FI of the JC-1 aggregated form by the FI of the monomeric form.

LUHMES cells [2] = assay: Mitochondrial superoxide (MitoSOX / calcein AM); conditions: 100 µM H2O2, 2 h, positive control
Description: As before, cells seeded on PLO/FN-coated 24-well microplates were treated for 48 h with 20 nM of annonacin and the selected concentrations of Nrf2-pathway activators, in glucose-reduced medium. After this period, the medium was removed, and the cells were washed once with warm HBSS before being simultaneously incubated with 0.5 µM of MitoSOX™ red (Thermo Fisher Scientific) and 1 µM of calcein AM for 30 min at 37 °C. Next, the cells were again washed with HBSS and fresh HBSS was added to maintain cell viability during live-image acquisition on a fluorescence microscope Leica-DFC9000GTC (Leica). The cells were kept under controlled environmental conditions, and similar image acquisition parameters were used for all images, as explained before. We acquired ten to fifteen images per condition, from different view fields across triplicates, with a 200 × magnification (20 × objective, 10 × intermediate magnification). Quantification of MitoSOX and calcein AM FI was performed using the ImageJ software. Briefly, TIFF exported images were submitted to background subtraction using the rolling ball method with a radius of 50 pixels. Channel-specific thresholds were applied to all images to define the ROI, and the FI were measured as integrated density and reported as arbitrary units (a. u.). The MitoSOX FI was normalized to cell viability estimated by calcein AM FI, to obtain a MitoSOX FI/calcein FI ratio. The average ratio of the different view fields per experimental condition was taken and reported as fold change relative to the control (DMSO-treated) condition.

LUHMES cells [3] = assay: Protective effects against annonacin toxicity, calcein viability assay; conditions: with 20 nM annonacin, glucose-reduced medium, 48 h; 40 μM Ki 696–2, 1 μM HPP-D, 15 μM ezetimibe, 4 μM licochalcone A; most protective or highest non-toxic concentration for the others
Description: The calcein AM green dye (Thermo Fisher Scientific) was diluted in DMSO to obtain a 1 mM stock solution. The stock solution was further diluted in HBSS (Hanks' balanced salt solution), immediately before incubation, to achieve a final working concentration of 1 μM in the well. The medium was removed, the cells were washed once with warm HBSS, and 200 µl of calcein working solution was added to each well. For background correction, 200 µl of calcein working solution was added to a well without cells (background control). After 30 min of incubation at 37 °C, the calcein solution was removed and the cells were washed once with HBSS. Cells were lysed in a 200 µl volume of 1% Triton™ X-100 in PBS (phosphate buffered saline) and the lysate transferred to a 96‐well black plate for the readout. The fluorescence signal was measured on a FLUOstar® Omega plate reader (BMG LabTech, Ortenberg, Germany) at λ Ex/Em = 485/530 nm and data was analyzed with the MARS data analysis software (BMG LabTech). For background correction, we subtracted the background control signal from the measured values of all experimental conditions. Data were expressed as percentage of viability relative to the control (DMSO-treated) condition.
For pharmacological treatments, we acquired several previously described Nrf2-pathway activators: ezetimibe (Cayman), licochalcone A (MedChem Express, New Jersey, NJ, USA), bardoxolone methyl, saracatinib and PP2 (AbMole BioScience Inc., Houston, TX, USA). The enantiomers Ki 696–1 and Ki 696–2, and the compound HPP-D were kindly provided by Orion Pharma (Espoo, Finland). All compounds were dissolved in DMSO and stored in small aliquots at -80 °C to avoid freeze–thaw cycles. Compound general toxicity was determined on PLO/FN double-coated 48-well microplates as follows: after 4 days of differentiation, LUHMES cells were incubated with the different Nrf2-pathway activators at concentrations ranging from 1 nM to 100 µM, for 96 h. The cell viability was assessed by calcein assay on day 8 of differentiation. Non-toxic concentrations of the Nrf2-pathway activators were selected and used in the pharmacological treatments, in combination with 20 nM of annonacin, in glucose-reduced differentiation medium, over a period of 48 h, similar to an in vitro model reported before. The protective effects of Nrf2-pathway activators against annonacin toxicity were determined in terms of cell viability with the calcein assay.

LUHMES cells [4] = assay: Compound general toxicity, calcein viability assay; conditions: 1 nM to 100 μM, 96 h, differentiation medium, calcein fluorescence
Description: We used LUHMES (lund human mesencephalic) cells derived from human embryonic ventral mesencephalic cells by conditional immortalization (Tet-off v-myc overexpression). Cells were grown in monolayer at 37 °C in a humidified atmosphere of 5% CO2, in 75 cm^2 tissue culture flasks coated with 0.05 µg/ml PLO (poly-L-ornithine). Cells were maintained in growth medium of DMEM/F12 (Sigma-Aldrich, St. Louis, MO, USA), supplemented with 1% N-2 supplement (Gibco, Thermo Fisher Scientific, Waltham, MA, USA) and 0.04 µg/ml basic fibroblast growth factor (PreproTech EC, Waltham, MA, USA), and routinely dissociated with trypsin–EDTA solution and subcultured when reaching 70% confluence to avoid overgrowth. […]
The calcein AM green dye (Thermo Fisher Scientific) was diluted in DMSO to obtain a 1 mM stock solution. […] Cells were lysed in a 200 µl volume of 1% Triton™ X-100 in PBS (phosphate buffered saline) and the lysate transferred to a 96‐well black plate for the readout. The fluorescence signal was measured on a FLUOstar® Omega plate reader (BMG LabTech, Ortenberg, Germany) at λ Ex/Em = 485/530 nm and data was analyzed with the MARS data analysis software (BMG LabTech). For background correction, we subtracted the background control signal from the measured values of all experimental conditions. Data were expressed as percentage of viability relative to the control (DMSO-treated) condition. […]

N#CC(C#N)=NNc1cccc(Cl)c1 [CCCP]
mitochondrial membrane potential (JC-1 aggregates) (LUHMES cells [1]): drastically reduced the presence of JC-1 aggregates

OO [H2O2]
MitoSOX fluorescence intensity (LUHMES cells [2]): increased the MitoSOX fluorescence intensity

CC(C)(C)n1nc(-c2ccc(Cl)cc2)c2c(N)ncnc21 [PP2]
reduction of annonacin toxicity (LUHMES cells [3]): no statistical differences

COC(=O)[C@]12CCC(C)(C)C[C@H]1[C@H]1C(=O)C=C3[C@@]4(C)C=C(C#N)C(=O)C(C)(C)[C@@H]4CC[C@@]3(C)[C@]1(C)CC2 [bardoxolone, bardoxolone methyl]
impact on viability of differentiated LUHMES neuronal cells (compound toxicity) (LUHMES cells [4]): extremely neurotoxic at concentrations above the nanomolar range

CN1CCN(CCOc2cc(OC3CCOCC3)c3c(Nc4c(Cl)ccc5c4OCO5)ncnc3c2)CC1 [saracatinib]
reduction of annonacin toxicity (LUHMES cells [3]): no statistical differences
